Results as given in patent publication US8017612B2, “Piperazine compound and use thereof as a HCV polymerase inhibitor” (priority 2006, dated 2011).

Key:
[1] = target: T1, HCV polymerase (NS5B) type 1a (Hepatitis C virus genotype 1a, UniProt P26664); test: Assay of enzyme (HCV polymerase) inhibitory activity, type 1a enzyme; format: biochemical, HCV type 1a (cloned from the blood of patients); conditions: HCV polymerase inhibitory activity IC50, 1a, type 1a enzyme
T1 construct: made in house; host or cells: Escherichia coli (by the 'similar method' of the 1b enzyme)
Outline: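 Reactions ran 60 min at 25° C in 20 mM Tris-HCl pH 7.5, 5 mM MgCl2, 50 mM NaCl, holding genotype 1a NS5B (1.5 μg/ml, Δ47 C-terminus, 6His), substrate RNA 5 μg/ml, UTP 2 μM with tritiated UTP and other NTPs 50 μM. IC50 derived from incorporated radiolabel in filter-trapped RNA relative to uninhibited reaction.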

[2] = target: T2, HCV polymerase (NS5B) type 1b (Hepatitis C virus genotype 1b, UniProt P26663); test: Assay of enzyme (HCV polymerase) inhibitory activity, type 1b enzyme; format: biochemical, HCV BK strain (type 1b); conditions: HCV polymerase inhibitory activity IC50, 1b, type 1b enzyme
T2 construct: a region encoding NS5B (J Virol 1991 March, 65(3), 1105-13, 544 amino acids after deletion of 47 amino acids on the C-terminal); 6xHis (C); made in house; host or cells: Escherichia coli
Outline: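 IC50 derived from [3H]UTP incorporation into TCA-insoluble RNA, compared with and without test compound. Reaction (25 °C, 60 min, Tris pH 7.5, 5 mM MgCl2): E. coli-expressed 1b NS5B Δ47 with His tag at 0.5 μg/ml, 5 μg/ml run-off substrate RNA, ATP/GTP/CTP 50 μM, UTP 2 μM.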

SMILES	IC50 [1] [nM]	IC50 [2] [nM]
NC(=O)c1ncc2sc(N3CCN(S(=O)(=O)c4ccc(C(F)(F)F)cc4)[C@@H](C(=O)NCc4ccc(OC(F)(F)F)cc4)C3)nc2n1 [Example 1013, 2-[(R)-3-(4-trifluoromethoxy-benzylcarbamoyl)-4-(4-trifluoromethyl-benzenesulfonyl)-piperazin-1-yl]-thiazolo[4,5-d]pyrimidine-5-carboxylic acid amide]	< 100	< 100
O=C(NCc1ccc(OC(F)F)cc1)[C@H]1CN(c2nc3nc(C4CC4)ncc3s2)CCN1S(=O)(=O)c1ccc(OC(F)F)cc1 [Example 1014, (R)-4-(5-cyclopropyl-thiazolo[4,5-d]pyrimidin-2-yl)-1-(4-difluoromethoxy-benzenesulfonyl)-piperazine-2-carboxylic acid 4-difluoromethoxy-benzylamide]	< 100	< 100
O=C(NCc1ccc(OC(F)F)cc1)[C@H]1CN(c2nc3nc(C(F)(F)F)ncc3s2)CCN1S(=O)(=O)c1ccc(OC(F)(F)C(F)F)cc1 [Example 1015, (R)-1-[4-(1,1,2,2-tetrafluoro-ethoxy)-benzenesulfonyl]-4-(5-trifluoromethyl-thiazolo[4,5-d]pyrimidin-2-yl)-piperazine-2-carboxylic acid 4-difluoromethoxy-benzylamide]	< 100	< 100
O=C(NCc1ccc(OC(F)(F)F)cc1)[C@H]1CN(c2nc3nc(C4CC4)ncc3s2)CCN1S(=O)(=O)c1ccc(OC(F)F)cc1 [Example 1016, (R)-4-(5-cyclopropyl-thiazolo[4,5-d]pyrimidin-2-yl)-1-(4-difluoromethoxy-benzenesulfonyl)-piperazine-2-carboxylic acid 4-trifluoromethoxy-benzylamide]	< 100	< 100
O=C(NCc1ccc(OC(F)F)cc1)[C@H]1CN(c2nc3nc(C4CC4)ncc3s2)CCN1S(=O)(=O)c1ccc(OC(F)(F)F)cc1 [Example 1017, (R)-4-(5-cyclopropyl-thiazolo[4,5-d]pyrimidin-2-yl)-1-(4-trifluoromethoxy-benzenesulfonyl)-piperazine-2-carboxylic acid 4-difluoromethoxy-benzylamide]	< 100	< 100
O=C(NCc1ccc(OC(F)F)cc1)[C@H]1CN(c2nc3nc(C4CC4)ncc3s2)CCN1S(=O)(=O)c1ccc(OC(F)(F)C(F)F)cc1 [Example 1018, (R)-4-(5-cyclopropyl-thiazolo[4,5-d]pyrimidin-2-yl)-1-[4-(1,1,2,2-tetrafluoro-ethoxy)-benzenesulfonyl]-piperazine-2-carboxylic acid 4-difluoromethoxy-benzylamide]	< 100	< 100
Cc1cc(=O)nc2sc(N3CCN(S(=O)(=O)c4ccc(OC(F)(F)F)cc4)[C@@H](C(=O)NCc4ccc(OC(F)(F)F)cc4)C3)nn12 [Example 1019, (R)-4-(5-methyl-7-oxo-7H-[1,3,4]thiadiazolo[3,2-a]pyrimidin-2-yl)-1-(4-trifluoromethoxy-benzenesulfonyl)-piperazine-2-carboxylic acid 4-trifluoromethoxy-benzylamide]	< 100	< 100
O=C(NCc1ccc(OC(F)(F)F)cc1)[C@H]1CN(c2nc3nc(C4CC4)ncc3s2)CCN1S(=O)(=O)c1ccc(OC(F)(F)C(F)F)cc1 [Example 1020, (R)-4-(5-cyclopropyl-thiazolo[4,5-d]pyrimidin-2-yl)-1-[4-(1,1,2,2-tetrafluoro-ethoxy)-benzenesulfonyl]-piperazine-2-carboxylic acid 4-trifluoromethoxy-benzylamide]	< 100	< 100
Nc1nc(C(F)(F)F)nc2nc(N3CCN(S(=O)(=O)c4ccc(OC(F)(F)F)cc4)[C@@H](C(=O)NCc4ccc(OC(F)(F)F)cc4)C3)sc12 [Example 1021, (R)-4-(7-amino-5-trifluoromethyl-thiazolo[4,5-d]pyrimidin-2-yl)-1-(4-trifluoromethoxy-benzenesulfonyl)-piperazine-2-carboxylic acid 4-trifluoromethoxy-benzylamide]	< 100	< 100
COc1nc(C(F)(F)F)nc2nc(N3CCN(S(=O)(=O)c4ccc(OC(F)(F)F)cc4)[C@@H](C(=O)NCc4ccc(OC(F)(F)F)cc4)C3)sc12 [Example 1022, (R)-4-(7-methoxy-5-trifluoromethyl-thiazolo[4,5-d]pyrimidin-2-yl)-1-(4-trifluoromethoxy-benzenesulfonyl)-piperazine-2-carboxylic acid 4-trifluoromethoxy-benzylamide]	100 to 1000	100 to 1000
O=C(NCc1ccc(OC(F)F)cc1)[C@H]1CN(c2nc3nc(C4CC4)ncc3s2)CCN1S(=O)(=O)c1ccc(C(F)(F)F)cc1 [Example 1023, (R)-4-(5-cyclopropyl-thiazolo[4,5-d]pyrimidin-2-yl)-1-(4-trifluoromethyl-benzenesulfonyl)-piperazine-2-carboxylic acid 4-difluoromethoxy-benzylamide]	< 100	< 100
CC(C)(C)c1ncc2sc(N3CCN(S(=O)(=O)c4ccc(OC(F)(F)F)cc4)[C@@H](C(=O)NCc4ccc(OC(F)(F)F)cc4)C3)nc2n1 [Example 1024, (R)-4-(5-tert-butyl-thiazolo[4,5-d]pyrimidin-2-yl)-1-(4-trifluoromethoxy-benzenesulfonyl)-piperazine-2-carboxylic acid 4-trifluoromethoxy-benzylamide]	< 100	< 100
CC(C)(C)c1ncc2sc(N3CCN(S(=O)(=O)c4ccc(C(F)(F)F)cc4)[C@@H](C(=O)NCc4ccc(OC(F)(F)F)cc4)C3)nc2n1 [Example 1025, (R)-4-(5-tert-butyl-thiazolo[4,5-d]pyrimidin-2-yl)-1-(4-trifluoromethyl-benzenesulfonyl)-piperazine-2-carboxylic acid 4-trifluoromethoxy-benzylamide]	< 100	< 100
Cc1c(Cl)c(=O)nc2sc(N3CCN(S(=O)(=O)c4ccc(OC(F)(F)F)cc4)[C@@H](C(=O)NCc4ccc(OC(F)(F)F)cc4)C3)nn12 [Example 1026, (R)-4-(6-chloro-5-methyl-7-oxo-7H-[1,3,4]thiadiazolo[3,2-a]pyrimidin-2-yl)-1-(4-trifluoromethoxy-benzenesulfonyl)-piperazine-2-carboxylic acid 4-trifluoromethoxy-benzylamide]	< 100	< 100
Cc1cc(=O)nc2sc(N3CCN(S(=O)(=O)c4ccc(OC(F)(F)F)cc4)[C@@H](C(=O)NCc4ccc(OC(F)F)cc4)C3)nn12 [Example 1027, (R)-4-(5-methyl-7-oxo-7H-[1,3,4]thiadiazolo[3,2-a]pyrimidin-2-yl)-1-(4-trifluoromethoxy-benzenesulfonyl)-piperazine-2-carboxylic acid 4-difluoromethoxy-benzylamide]	< 100	< 100
Cc1cc(=O)nc2sc(N3CCN(S(=O)(=O)c4ccc(C(F)(F)F)cc4)[C@@H](C(=O)NCc4ccc(OC(F)(F)F)cc4)C3)nn12 [Example 1028, (R)-4-(5-methyl-7-oxo-7H-[1,3,4]thiadiazolo[3,2-a]pyrimidin-2-yl)-1-(4-trifluoromethyl-benzenesulfonyl)-piperazine-2-carboxylic acid 4-trifluoromethoxy-benzylamide]	< 100	< 100
Cc1nc(C(N)=O)c2sc(N3CCN(S(=O)(=O)c4ccc(OC(F)(F)F)cc4)[C@@H](C(=O)NCc4ccc(OC(F)(F)F)cc4)C3)nc2n1 [Example 1029, 5-methyl-2-[(R)-4-(4-trifluoromethoxy-benzenesulfonyl)-3-(4-trifluoromethoxy-benzylcarbamoyl)-piperazin-1-yl]-thiazolo[4,5-d]pyrimidine-7-carboxylic acid amide]	100 to 1000	< 100
Cn1ncc2sc(N3CCN(S(=O)(=O)c4ccc(C(F)(F)F)cc4)[C@@H](C(=O)NCc4ccc(OC(F)(F)F)cc4)C3)nc2c1=O [Example 1030, (R)-4-(5-methyl-4-oxo-4,5-dihydro-thiazolo[4,5-d]pyridazin-2-yl)-1-(4-trifluoromethyl-benzenesulfonyl)-piperazine-2-carboxylic acid 4-trifluoromethoxy-benzylamide]	< 100	< 100
O=C(NCc1ccc(OC(F)(F)F)cc1)[C@H]1CN(c2nn3c(=O)c(C(F)(F)F)nnc3s2)CCN1S(=O)(=O)c1ccc(OC(F)(F)F)cc1 [Example 1031, (R)-4-(4-oxo-3-trifluoromethyl-4H-[1,3,4]thiadiazolo[2,3-c][1,2,4]triazin-7-yl)-1-(4-trifluoromethoxy-benzenesulfonyl)-piperazine-2-carboxylic acid 4-trifluoromethoxy-benzylamide]	100 to 1000	100 to 1000
Cc1cc(=O)nc2sc(N3CCN(S(=O)(=O)c4ccc(C(F)(F)F)cc4)[C@@H](C(=O)NCc4ccc(OC(F)F)cc4)C3)nn12 [Example 1032, (R)-4-(5-methyl-7-oxo-7H-[1,3,4]thiadiazolo[3,2-a]pyrimidin-2-yl)-1-(4-trifluoromethyl-benzenesulfonyl)-piperazine-2-carboxylic acid 4-difluoromethoxy-benzylamide]	< 100	< 100
